Measured values reported in patent US9730940B2, “Purine inhibitors of human phosphatidylinositol 3-kinase delta” (priority 2012, dated 2017).

Molecular target: PI3K-alpha (Homo sapiens (Human), UniProt P42336)
Test: HTRF PI3K biochemical assay, alpha isoform
Conditions: ratio PI3K-alpha IC50 value/PI3K-delta IC50 value
Description: HTRF PI3K Biochemical Assay to Measure Intrinsic Potency of Compound Inhibitors
The PI3-Kinase biochemical assays were developed to measure the intrinsic potency and compound dependent inhibition of the alpha, beta, delta, and gamma PI3K isoform enzymes. This assay was developed and further optimized from a kit produced by Upstate (Millipore catalog #33-047) and has been configured for HTS and SAR screening. Briefly, this procedure exploits the exquisite specificity and high affinity binding of enzyme reaction substrate phosphatidyl(3,4,5)triphosphate (PIP3) to the GRP1 pleckstrin homology (PH) domain to generate the signal. In the absence of PIP3, an HTRF (Homogeneous Time-Resolved Fluorescence energy transfer) complex is formed consisting of europium (Eu)-labeled anti-GST, GST tagged GRP1-PH domain, biotin-PIP3 and streptavidin conjugated APC. The native PIP3 produced by PI3-Kinase activity disrupts in a competitive manner the biotin-PIP3 from the PH domain, resulting in the loss of energy transfer (HTRF complex) and a decrease in the signal. The format of this assay is the same for all 4 isoforms of PI3K; the differences lie in the concentration of enzyme used to achieve robust assay window. The alpha, beta, and delta assays are run at 0.5, 1, and 0.3 nM enzymes and the gamma assay is run at 5 nM enzyme. The ATP concentration is 100 uM in the alpha, beta, and delta assays and 50 uM ATP in the gamma assay. All reactions are run at 5 uM PIP2.
Compounds are serially diluted (3-fold in 100% DMSO) across a 384-well polypropylene source plated from column 3 to column 12 and column 13 to column 22, to yield 10 concentration dose response for each test compound. Columns 1, 2, 23 and 24 contain either only DMSO or pharmacological known control inhibitor.
The PI3-Kinase biochemical assay was optimized using the HTRF kit provided by Upstate (Millipore). The assay kit contains six reagents: 1) 4× Reaction Buffer; 2) native PIP2 (substrate); 3) Stop (EDTA); 4) Detection Mix A (Streptavidin-APC); 5) Detection Mix B (Eu-labeled Anti-GST plus GST-tagged PH-domain); 6) Detection Mix C.
PI3Kinase Reaction Buffer is prepared by dilution the stock 1:4 with de-ionized water. […] Enzyme addition and compound pre-incubation are initiated by the addition of 1.25 ul of PI3K (at twice its final concentration) in the 1× reaction buffer to all wells using a BioRaptor. Plates are incubated at room temperature for 15 minutes. Reactions are initiated by addition of 1.25 ul of 2× substrate solution (PIP2 and ATP in 1× reaction buffer) using BioRaptor. Plates are incubated in humidified chamber at room temperature for one hour. Reactions are quenched by addition of 0.625 uL of stop solution to all wells using the BioRaptor. The quenched reactions are then processed to detect product formation by adding 0.625 uL of Detection Solution to all wells using the BioRaptor (Detection mix C, Detection Mix A, and Detection Mix B combined together in an 18:1:1 ratio prepared 2 hours prior to use).
The loss of the HTRF signal is due to the displacement of biotinylated-PIP3 from the PH domain by the PI3K-dependent conversion of PIP2 to PIP3. This loss of signal is nonlinear with respect to both increasing product and time. This non-linear detection will impact accuracy of IC50 calculations; therefore, there is a need for a correction factor to obtain more accurate IC50 values. This correction is derived from a PIP3 standard curve run in a separate assay plate. All data were calculated using the ratio of acceptor (APC) to donor (Europium) fluorescence in each well of the assay plate. […] An IC50 was then calculated fitting the % inhibition data to the equation: % inhibition=min+(Max−min)/1+([inhibitor]/IC50)^n) where min is the % inhibition […], max is the signal in DMSO control, and n is the Hill slope.

PI3K-alpha, sequence (P42336 whole entry, looked up, canonical isoform): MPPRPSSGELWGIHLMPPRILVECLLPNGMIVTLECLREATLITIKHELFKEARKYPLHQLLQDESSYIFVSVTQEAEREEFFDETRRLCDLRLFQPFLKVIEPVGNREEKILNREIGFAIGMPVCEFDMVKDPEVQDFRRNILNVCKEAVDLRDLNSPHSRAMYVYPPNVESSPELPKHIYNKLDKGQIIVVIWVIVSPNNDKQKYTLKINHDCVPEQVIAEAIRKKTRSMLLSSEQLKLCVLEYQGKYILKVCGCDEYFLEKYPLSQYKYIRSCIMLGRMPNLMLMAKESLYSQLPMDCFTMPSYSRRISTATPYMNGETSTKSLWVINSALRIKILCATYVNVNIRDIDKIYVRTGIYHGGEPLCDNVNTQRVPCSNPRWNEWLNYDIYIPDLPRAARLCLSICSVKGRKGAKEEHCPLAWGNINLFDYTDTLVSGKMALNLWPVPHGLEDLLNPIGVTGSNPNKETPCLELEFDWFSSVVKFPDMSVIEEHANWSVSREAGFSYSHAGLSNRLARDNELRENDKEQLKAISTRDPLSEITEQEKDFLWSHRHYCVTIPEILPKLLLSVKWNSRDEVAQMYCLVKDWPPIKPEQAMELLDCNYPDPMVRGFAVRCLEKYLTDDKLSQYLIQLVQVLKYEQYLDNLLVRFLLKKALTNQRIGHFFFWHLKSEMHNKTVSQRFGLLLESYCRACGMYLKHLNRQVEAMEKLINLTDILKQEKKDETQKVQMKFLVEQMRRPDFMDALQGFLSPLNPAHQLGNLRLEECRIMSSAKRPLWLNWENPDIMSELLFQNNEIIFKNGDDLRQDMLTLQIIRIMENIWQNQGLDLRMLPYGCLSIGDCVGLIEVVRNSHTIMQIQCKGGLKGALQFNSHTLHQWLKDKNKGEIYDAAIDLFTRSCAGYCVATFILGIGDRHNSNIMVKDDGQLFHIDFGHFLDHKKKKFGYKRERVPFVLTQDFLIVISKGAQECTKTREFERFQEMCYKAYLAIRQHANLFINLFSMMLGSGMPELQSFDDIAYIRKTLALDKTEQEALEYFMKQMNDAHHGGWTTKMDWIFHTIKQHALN
PI3K-alpha, sequence (P27986 whole entry partner, looked up, canonical isoform): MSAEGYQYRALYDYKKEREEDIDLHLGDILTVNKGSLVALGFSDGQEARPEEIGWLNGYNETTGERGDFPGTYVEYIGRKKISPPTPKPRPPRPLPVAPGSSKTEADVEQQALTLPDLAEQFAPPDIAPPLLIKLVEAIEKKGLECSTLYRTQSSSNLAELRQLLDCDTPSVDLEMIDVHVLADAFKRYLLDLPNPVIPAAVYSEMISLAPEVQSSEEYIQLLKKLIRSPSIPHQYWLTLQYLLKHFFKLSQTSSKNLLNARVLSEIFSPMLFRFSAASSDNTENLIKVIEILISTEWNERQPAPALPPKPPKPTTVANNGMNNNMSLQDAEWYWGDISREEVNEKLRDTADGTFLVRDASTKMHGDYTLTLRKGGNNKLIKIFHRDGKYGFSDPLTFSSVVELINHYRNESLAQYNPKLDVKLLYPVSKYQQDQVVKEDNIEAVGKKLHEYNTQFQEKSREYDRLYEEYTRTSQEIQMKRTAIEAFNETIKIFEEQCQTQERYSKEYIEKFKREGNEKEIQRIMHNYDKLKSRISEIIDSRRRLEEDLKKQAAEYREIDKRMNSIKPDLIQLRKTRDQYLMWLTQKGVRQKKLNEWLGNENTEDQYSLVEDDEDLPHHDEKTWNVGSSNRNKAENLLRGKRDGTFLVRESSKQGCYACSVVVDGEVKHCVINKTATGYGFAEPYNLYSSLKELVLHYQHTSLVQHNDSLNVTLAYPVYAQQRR

SMILES | Relative Selectivity versus PI3Kalpha
CCn1c(-c2cnc(C)nc2)nc2c(O[C@H]3CCN(C(=O)[C@@H]4CN5CC[C@H]4C5)C3)ncnc21 [Compound 2-104, 6-({(3S)-1-[(3S,4R)-1-azabicyclo[2.2.1]hept-3-ylcarbonyl]pyrrolidin-3-yl}oxy)-9-ethyl-8-(2-methylpyrimidin-5-yl)-9H-purine] | >10
CCC(=O)N1CC[C@H](Oc2ncnc3c2nc(-c2cnn(CC)c2C)n3CC(F)F)C1 [Compound 3-21, 9-(2,2-difluoroethyl)-8-(1-ethyl-5-methyl-1H-pyrazol-4-yl)-6-{[(3S)-1-propanoylpyrrolidin-3-yl]oxy}-9H-purine] | >10
CCC(=O)N1CC[C@H](Oc2ncnc3c2nc(Oc2cnc(C)nc2)n3C)C1 [Compound 12-3, 9-methyl-8-[(2-methylpyrimidin-5-yl)oxy]-6-{[(3S)-1-propanoylpyrrolidin-3-yl]oxy}-9H-purine] | >10
CCn1c(C(=O)NCC(F)(F)F)nc2c(O[C@H]3CCN(C(=O)N4CC(OC)C4)C3)ncnc21 [Compound 15-2, (S)-9-ethyl-6-((1-(3-methoxyazetidine-1-carbonyl)pyrrolidin-3-yl)oxy)-N-(2,2,2-trifluoroethyl)-9H-purine-8-carboxamide] | >10
CCn1c(N(C)CCO)nc2c(O[C@H]3CCN(C(=O)OC(C)(C)C)C3)ncnc21 [Compound 13-2, tert-butyl (3S)-3-({9-ethyl-8-[(2-hydroxyethyl)(methyl)amino]-9H-purin-6-yl}oxy)pyrrolidine-1-carboxylate] | >10
CCC(=O)N1CC[C@H](Oc2ncnc3c2nc(-c2ccc(OC)c(F)c2)n3C)C1 [Compound 3-32, 8-(3-fluoro-4-methoxyphenyl)-9-methyl-5-{[(3S)-1-propanoylpyrrolidin-3-yl]oxy}-9H-purine] | >10
CCn1ncc(-c2nc3c(O[C@H]4CCN(c5cc(-n6cccn6)ncn5)C4)ncnc3n2C)c1C [Compound 7-15, 8-(1-ethyl-5-methyl-1H-pyrazol-4-yl)-9-methyl-6-({(3S)-1-[6-(1H-pyrazol-1-yl)pyrimidin-4-yl]pyrrolidin-3-yl}oxy)-9H-purine] | >10
CCn1c(-c2cnc(C)nc2)nc2c(O[C@H]3CCN(C(=O)c4cocn4)C3)ncnc21 [Compound 2-136, 9-ethyl-8-(2-methylpyrimidin-5-yl)-6-{[(3S)-1-(1,3-oxazol-4-ylcarbonyl)pyrrolidin-3-yl]oxy}-9H-purine] | >10
CCn1c(-c2cnc(C)nc2)nc2c(OC3CN(C(=O)OC(C)(C)C)CC3O)ncnc21 [Compound 1-46, [(3S,4S) and (3R,4R)]-tert-butyl 3-{[9-ethyl-8-(2-methylpyrimidin-5-yl)-9H-purin-6-yl]oxy}-4-hydroxypyrrolidine-1-carboxylate] | >10
CCn1ncc(-c2nc3c(S[C@H]4CCN(C(=O)OCC(C)C)C4)ncnc3n2C)c1C [Compound 10-9, (S)-isobutyl 3-((8-(1-ethyl-5-methyl-1H-pyrazol-4-yl)-9-methyl-9H-purin-6-yl)thio)pyrrolidine-1-carboxylate] | >10
CCn1ncc(-c2nc3c(O[C@H]4CCN(C(=O)c5cccnc5)C4)ncnc3n2C)c1C [Compound 2-22, 8-(1-ethyl-5-methyl-1H-pyrazol-4-yl)-9-methyl-6-{[(3S)-1-(pyridin-3-ylcarbonyl)pyrrolidin-3-yl]oxy}-9H-purine] | >10
CCn1ncc(-c2nc3c(O[C@H]4CCN(C(=O)c5ccccn5)C4)ncnc3n2C)c1C [Compound 2-66, 8-(1-ethyl-5-methyl-1H-pyrazol-4-yl)-9-methyl-6-{[(3S)-1-(pyridin-2-ylcarbonyl)pyirolidin-3-yl]oxy}-9H-purine] | >10
CCn1c(-c2cnc3[nH]ccc3c2)nc2c(O[C@H]3CCN(C(=O)C4CC4)C3)ncnc21 [Compound 3-25, 6-{[(3S)-1-(cyclopropylcarbonyl)pyrrolidin-3-yl]oxy}-9-ethyl-8-(1H-pyrrolo[2,3-b]pyridin-5-yl)-9H-purine] | >10
CCC(=O)N1CC[C@H](Oc2ncnc3c2nc(-c2cc(F)cc(NS(C)(=O)=O)c2)n3C)C1 [Compound 3-14, N-[3-fluoro-5-(9-methyl-6-{[(3S)-1-propanoylpyrrolidin-3-yl]oxy}-9H-purin-8-yl)phenyl]methanesulfonamide] | >10
CCn1c(-c2cnc(C)nc2)nc2c(O[C@H]3CCN(C(=O)N4CC(F)C4)C3)ncnc21 [Compound 5-27, 9-ethyl-6-({(3S)-1-[(3-fluoroazetidin-1-yl)carbonyl]pyrrolidin-3-yl}oxy)-8-(2-methylpyrimidin-5-yl)-9H-purine] | >10
CCC(=O)N1CC[C@H](Oc2ncnc3c2nc(C(F)(F)F)n3CC)C1 [Compound 14-6, 9-ethyl-6-{[(3S)-1-propanoylpyrrolidin-3-yl]oxy}-8-(trifluoromethyl)-9H-purine] | >10
CCC(=O)N1CC[C@H](Oc2ncnc3c2nc(-c2ccc(Cl)nc2)n3C)C1 [Compound 3-17, 8-(6-chloropyridin-3-yl)-9-methyl-6-{[(3S)-1-propanoylpyrrolidin-3-yl]oxy}-9H-purine] | >10
CCn1ncc(-c2nc3c(O[C@H]4CCN(C(=O)c5nnsc5C)C4)ncnc3n2C)c1C [Compound 2-46, 8-(1-ethyl-5-methyl-1H-pyrazol-4-yl)-9-methyl-6-({(3S)-1-[(5-methyl-1,2,3-thiadiazol-4-yl)carbonyl]pyrrolidin-3-yl}oxy)-9H-purine] | >10
CCn1ncc(-c2nc3c(OC4CCN(C(=O)c5cnco5)C4)ncnc3n2C)c1C (stereo not drawn) [Compound 2-7, 8-(1-ethyl-5-methyl-1H-pyrazol-4-yl)-9-methyl-6-{[1-(1,3-oxazol-5-ylcarbonyl)pyrrolidin-3-yl]oxy}-9H-purine] | >10
CCn1ncc(-c2nc3c(S[C@H]4CCN(C(=O)OC(C)(C)C)C4)ncnc3n2C)c1C [Compound 10-1, (S)-tert-butyl 3-((8-(1-ethyl-5-methyl-1H-pyrazol-4-yl)-9-methyl-9H-purin-6-yl)thio)pyrrolidine-1-carboxylate] | >10
CCn1ncc(-c2nc3c(O[C@H]4CCN(C(=O)c5ncoc5C)C4)ncnc3n2C)c1C [Compound 2-57, 8-(1-ethyl-5-methyl-1H-pyrazol-4-yl)-9-methyl-6-({(3S)-1-[(5-methyl-1,3-oxazol-4-yl)carbonyl]pyrrolidin-3-yl}oxy)-9H-purine] | >10
CCC(=O)N1CC[C@H](Oc2ncnc3c2nc(-c2cnn(CC)c2C)n3C2CC2)C1 [Compound 2-97, (S)-1-(3-((9-cyclopropyl-8-(1-ethyl-5-methyl-1H-pyrazol-4-yl)-9H-purin-6-yl)oxy)pyrrolidin-1-yl)propan-1-one] | >10
CCC(=O)N1CC[C@H](Oc2ncnc3c2nc(-c2cnc4[nH]nc(C)c4c2)n3C)C1 [Compound 3-10, 9-methyl-8-(3-methyl-1H-pyrazolo[3,4-b]pyridin-5-yl)-6-{[(3S)-1-propanoylpyrrolidin-3-yl]oxy}-9H-purine] | >10
Cn1c(-c2cnc(C(C)(C)C)s2)nc2c(O[C@H]3CCN(C(=O)OC(C)(C)C)C3)ncnc21 [Compound 1-39, tert-butyl (3S)-3-{[8-(2-tert-butyl-1,3-thiazol-5-yl)-9-methyl-9H-purin-6-yl]oxy}pyrrolidine-1-carboxylate] | >10
